# From patent publication US20020161007A1, “Non-steroidal modulators of estrogen receptors” (priority 2001, published 2002)
# Read-outs that look alike come from different tables or passages of the source.
# Tests used:
# [1] = test system: human breast tumor MCF-7 cell line; assay: MTT antiproliferative assay on human MCF-7 cell line; assay type: cell-based; conditions: for IC50: MTT inhibition of proliferation, mean of triplicate determinations; for % Cell viability: 72 h, MTT, MCF-7
# Description: EXAMPLE 14—Determination of the antiproliferative effects on human MCF-7 cell lines.
# MTT is a yellow tetrazolium salt which is taken up only by metabolically active cells and subsequently cleaved by mitochondrial dehydrogenases to yield a purple crystalline formazan dye. On solubilisation this purple color may be read spectrophotometrically at 570 nm. The absorbance measured at this wavelength is directly proportional to the amount of viable cells present.
# Procedure : The human breast tumor MCF-7 cell line was cultured in Eagles minimum essential medium in a 5% CO2 atmosphere with 10% fetal calf serum. The medium was supplemented with 1% non-essential amino acids. The cells were trypsinized and seeded at a density of 1.5×10^4 into a 96-well plate and incubated at 37° C., 5% CO2 atmosphere for 24 h. […] Control wells contained the equivalent volume of the vehicle ethanol (1% v/v). The culture medium was then removed and the cells washed with 100 μl PBS and 50 μl MTT added, to reach a final concentration of 1 mg/ml MTT added. The cells were incubated for 2 h in darkness at […]. At this point solubilisation was begun through the addition of 200 μl DMSO and the cells maintained at room temperature in darkness for 20 min to ensure thorough color diffusion before reading the absorbance. The absorbance value of control cells (no added compound) was set to 100% cell viability. Graphs of absorbance versus cell density per well were prepared to assess cell viability.
# [2] = test system: human MCF-7 breast cancer cells; assay: LDH release cytotoxicity assay on human MCF-7 cells; assay type: cell-based; conditions: 72 h
# Description: EXAMPLE 15—Determination of the cytotoxic effects on human MCF-7 cell lines.
# Lactate dehydrogenase (LDH) is a cytosolic enzyme released upon cell lysis (death). Through the use of a commercial LDH assay kit, released LDH converts a substrate tetrazolium salt into a soluble red formazan product. The absorbance of this dye can be measured directly at 490 nm, the color formed is proportional to the number of lysed cells, and as such the extent of cytotoxic activity for the compound added may be assessed.
# Procedure : As with the cell proliferation assay, human MCF-7 breast cancer cells were plated at a density of 1.5×10^4 per well in a 96-well plate, then incubated at 37° C., 5% CO2 atmosphere for 24 h. The cells were treated with the compound of choice at varying concentrations (1nM-100 μM), then incubated for a further 72 h. Following incubation 50 μl aliquots of medium were removed to a fresh 96-well plate. A 50 μl per well LDH substrate mixture was added and the plate left in darkness at room temperature for 30 minutes. Stop solution (50 μl) was added to all wells before reading the absorbance at 490 nm. A control of 100% lysis was determined for a set of untreated cells which were lysed through the addition of 20 μl lysis solution to the media 45 min prior to harvesting.
# [3] = Homo sapiens, MCF7, read-out: IC50 Range
# [4] = Homo sapiens, MCF7, read-out: IC50
Molecule,IC50 ([1]; read-out: IC50 Range) [µM],"IC50 [1, 4] [µM]",also measured
"1,2-Diphenyl-2-[(4-pipyridinylethoxy)benzyl]but-1-ene [Compound 19]",65 to 70,,
"CCC(Cc1ccccc1)=C(c1ccccc1)c1ccc(OCCN(CC)CC)cc1 [Compound 2, 2-Benzyl-1-phenyl-1-[4-(diethylaminoethoxy)phenyl]but-1-ene]",,,"IC50 [1, 3]: 10 to 15 µM"
"CCC(Cc1ccccc1)=C(c1ccccc1)c1ccc(OCCN2CCCC2)cc1 [Compound 3, 2-Benzyl-1-phenyl-1-[4-(pyrrolidinylethoxy)phenyl]but-1-ene]",1 to 5,,
"CCC(Cc1ccccc1)=C(c1ccccc1)c1ccc(OCCN2CCCCC2)cc1 [Compound 4, 2-Benzyl-1-phenyl-1-[4-(pipyridinylethoxy)phenyl]but-1-ene]",1 to 5,,% Cell viability ([1]; 1 nM): 103.8%; % Cell viability ([1]; 10 nM): 100.3%; % Cell viability ([1]; 100 nM): 91.14%; % Cell viability ([1]; 1 μM): 85.13%; % Cell viability ([1]; 10 μM): 29.11%; % Cell viability ([1]; 50 μM): 1.58%; % Cell viability ([1]; 100 μM): 1.27%; % Cytotoxicity ([2]; 1 nM): 3.67%; % Cytotoxicity ([2]; 10 μM): 34.76%; % Cytotoxicity ([2]; 50 μM): 49.44%; % Cytotoxicity ([2]; 100 μM): 49.14%
"CCC(Cc1ccccc1)=C(c1ccccc1)c1ccc(OCCN2CCOCC2)cc1 [Compound 5, 2-Benzyl-1-phenyl-1-[4-(morpholinylethoxy)phenyl]but-1-ene]",40 to 50,,
"CCC(=C(Cc1ccccc1)c1ccc(OCCN(CC)CC)cc1)c1ccccc1 [Compound 7, 1-Benzyl-2-phenyl-[1-(4-diethylaminoethoxy)phenyl]-but-1-ene]",15 to 20,,
"CC/C(=C(\Cc1ccccc1)c1ccc(OCCN2CCCC2)cc1)c1ccccc1 [Compound 8, 1-Benzyl-2-phenyl-[1-(4-pyrrolidinylethoxy)phenyl]-but-1-ene]",,,"IC50 [1, 3]: 10 to 15 µM"
"CC/C(=C(\Cc1ccccc1)c1ccc(OCCN2CCCCC2)cc1)c1ccccc1 [Compound 9, 1-Benzyl-2-phenyl-[1-(4-pipyridinylethoxy)phenyl]-but-1-ene]",,,"IC50 [1, 3]: 70 to 80 µM"
"CC/C(=C(\Cc1ccccc1)c1ccc(OCCN2CCOCC2)cc1)c1ccccc1 [Compound 10, 1-Benzyl-2-phenyl[1-(5-morpholinylethoxy)phenyl]but-1-ene]",,,"IC50 [1, 3]: 1 to 5 µM"
"CC/C(=C(\Cc1ccccc1)c1ccccc1)c1ccc(OCCN(C)C)cc1 [Compound 11, 1-Benzyl-1-phenyl-2-[(4-dimethylaminoethoxy)phenyl]but-1-ene]",,,"IC50 [1, 3]: 115 to 120 µM"
"CCC(=C(Cc1ccccc1)c1ccccc1)c1ccc(OCCN(CC)CC)cc1 [Compound 12, 1-Benzyl-1-phenyl-2-[(4-diethylaminoethoxy)phenyl]but-1-ene]",20 to 25,,
"CCC(=C(Cc1ccccc1)c1ccccc1)c1ccc(OCCN2CCCC2)cc1 [Compound 13, 1-Benzyl-1-phenyl-2-[(4-pyrrolidinylethoxy)phenyl]but-1-ene]",20 to 25,,
"CCC(=C(Cc1ccccc1)c1ccccc1)c1ccc(OCCN2CCOCC2)cc1 [Compound 15, 1-Benzyl-1-phenyl-2-[(4-morpholinylethoxy)phenyl]but-1-ene]",50 to 55,,
CC/C(=C(/Cc1ccc(OCCN(C)C)cc1)c1ccccc1)c1ccccc1 [Compound 16],,,"IC50 [1, 3]: 25 to 30 µM"
"CCC(=C(Cc1ccccc1OCCN(CC)CC)c1ccccc1)c1ccccc1 [Compound 17, 1,2-Diphenyl-2-[2-(diethylaminoethoxy)benzyl]but-1-ene]",55 to 60,,
CCC(=C(Cc1ccc(OCCN2CCCC2)cc1)c1ccccc1)c1ccccc1 [Compound 18],140 to 145,,
CCC(Cc1ccccc1)=C(c1ccc(OCCN2CCCC2)cc1)c1ccc(OC(=O)C(C)(C)C)cc1 [Compound 21],1 to 10,,
CCC(Cc1ccccc1)=C(c1ccc(OCCN(C)C)cc1)c1ccc(OC(=O)C(C)(C)C)cc1 [Compound 22],10 to 50,,
CCC(Cc1ccccc1)=C(c1ccc(OCCN2CCOCC2)cc1)c1ccc(OC(=O)C(C)(C)C)cc1 [Compound 23],0.1 to 1,,

Molecule,IC50 ([1]; read-out: IC50 Range) [µM],"IC50 [1, 4] [µM]",also measured
"CCC(Cc1ccccc1)=C(c1ccc(O)cc1)c1ccc(OCCN(C)C)cc1 [Compound 24, 4-{2-Benzyl-1-[4-(2-dimethylamino-ethoxy)-phenyl]-but-1-enyl}-phenol]",,,"IC50 [1, 3]: 0.01 to 0.1 µM"
"CC/C(Cc1ccccc1OC)=C(/c1ccc(OCCN2CCCC2)cc1)c1ccc(OC(=O)C(C)(C)C)cc1 [Compound 26, 2,2-Dimethyl-propionic acid 4-{2-(2-methoxybenzyl)-1-[4-(2-pyrrolidin-1-yl-ethoxy)-phenyl]-but-1-enyl}-phenyl ester]",,,"IC50 [1, 3]: 1 to 10 µM"
"CCC(Cc1ccccc1)=C(c1ccccc1)c1ccc(NCCOC)cc1 [Compound 27, [4-(2-Benzyl-1-phenylbut-1-enyl)-phenyl]-(2-methoxyethyl)-amine]",,33.7,
"CCOCCNc1ccc(C(=C(CC)Cc2ccccc2)c2ccccc2)cc1 [Compound 28, [4-(2-Benzyl-1-phenylbut-1-enyl)-phenyl]-(2-ethoxyethyl)-amine]",,36.8,
"CCCOCCNc1ccc(C(=C(CC)Cc2ccccc2)c2ccccc2)cc1 [Compound 29, [4-(2-Benzyl-1-phenylbut-1-enyl)-phenyl]-(2-propoxyethyl)-amine]",,46.9,
"CCC(Cc1ccccc1)=C(c1ccccc1)c1ccc(NCCCOC)cc1 [Compound 30, [4-(2-Benzyl-1-phenylbut-1-enyl)-phenyl]-(3-methoxypropyl)-amine]",,35.4,
"CCOCCCNc1ccc(/C(=C(/CC)Cc2ccccc2)c2ccccc2)cc1 [Compound 31, [4-(2-benzyl-1-phenylbut-1-enyl)-phenyl]-(3-ethoxypropyl)-amine]",,14.1,
"CCCOCCCNc1ccc(C(=C(CC)Cc2ccccc2)c2ccccc2)cc1 [Compound 32, [4-(2-Benzyl-1-phenylbut-1-enyl)-phenyl]-(3-propoxypropyl)-amine]",,23.3,
"CCC(Cc1ccccc1)=C(c1ccccc1)c1ccc(NCCO)cc1 [Compound 33, 2-[4-(2-Benzyl-1-phenylbut-1-enyl)-phenylamino]-ethanol]",,39.5,
"CCC(Cc1ccccc1)=C(c1ccccc1)c1ccc(NCCCO)cc1 [Compound 34, 3-[4-(2-Benzyl-1-phenylbut-1-enyl)-phenylamino]-propan-1-ol]",,34,
"CCC(Cc1ccccc1)=C(c1ccccc1)c1ccc(OCCO)cc1 [Compound 35, 2-[4-(2-Benzyl-1-phenylbut1enyl)-phenoxy]-ethanol]",,24.9,
"CCC(Cc1ccccc1)=C(c1ccccc1)c1ccc(OCCCO)cc1 [Compound 36, 3-[4-(2-Benzyl-1-phenylbut-1-enyl)-phenoxy]-propan-1-ol]",,20.2,
"CCC(Cc1ccccc1)=C(c1ccc(NCCOC)cc1)c1ccc(OC)cc1 [Compound 37, {4-[2-Benzyl-1-(4-methoxyphenyl)-but-1-enyl]-phenyl}-(2-methoxyethyl)-amine]",,34.4,
"CCC(Cc1ccc(OC)cc1)=C(c1ccc(NCCOC)cc1)c1ccc(OC)cc1 [Compound 38, {4-[2-(4-methoxybenzyl)-1-(4-methoxyphenyl)-but-1-enyl]-phenyl}-(2-methoxyethyl)-amine]",,51.8,
"CCC(Cc1ccc(OC)cc1)=C(c1ccccc1)c1ccc(NCCOC)cc1 [Compound 39, {4-[2-(4-methoxybenzyl)-1-phenylbut-1-enyl]-phenyl}-(2-methoxyethyl)-amine]",,49.5,
"CCC(Cc1ccccc1)=C(c1ccccc1)c1ccc(OCCOC)cc1 [Compound 40, 1-(2-Benzyl-1-phenylbut-1-enyl)-4-(2-methoxyethoxy)-benzene]",,41.7,
"CCC(Cc1ccc(O)cc1)=C(c1ccccc1)c1ccc(NCCOC)cc1 [Compound 41, 4-{2-Ethyl-3-[4-(2-methoxyethylamino)-phenyl]-3-phenylallyl}-phenol]",,32.4,
"CCC(Cc1ccccc1)=C(c1ccccc1)c1ccc(NCCN(C)C)cc1 [Compound 42, N′-[4-(2-Benzyl-1-phenylbut-1-enyl)-phenyl]-N,N-dimethylethane-1,2-diamine]",,13.7,
